Data set [1] addresses T1, NHE-1 (Oryctolagus cuniculus, UniProt P23791).
T1 construct: endogenous in cells; host or cells: rabbit platelets in platelet-rich plasma (male rabbits)
The data set is described as follows: NHE-1 inhibition assay on rabbit platelets (platelet shape change after acidification with sodium propionate, laser aggregometer). The class given is cell-based. The settings on record: for inhibition at 0.01 µM: 10 nM, rabbit platelet-rich plasma, decimal commas, read-out: NHE-1 inhibition at 10 nM, m ± SD, n = 6 (%); for NHE-1 inhibitory activity (in words): compared with reference drugs. The procedure: Evaluation of NHE-1 inhibition was carried out on rabbit platelets by the known method[39],[40]. The experiments were carried out on 15 male rabbits weighing 3.0-4.0 kg. Platelet-rich plasma (PRP) was obtained by centrifuging blood with 3.8% sodium citrate (1:10) at 1000 rpm for 12 min (Multi centrifuge CM 6M, Latvia). Platelet shapeshifting due to acidification was followed with a laser aggregometer BIOLA-220 LA (Russia). Test compounds (10 μl, 10 nM final concentration) were added to 200 μl of PRP 5 min in a cuvette before the addition of sodium propionate solution, incubated with constant stirring using a magnetic stirrer (800 rpm, 37 °C). To control samples for NHE-1 activation, a buffer solution containing sodium propionate was added to 200 μL of PRP (600 μL, 135 mM sodium propionate, 20 mM HEPES, 1 mM CaCI2, 1 mM MgCI2, 10 mM glucose; pH 6.7). The change in light transmission at pH 7.4, 37 °C was monitored in a Krebs solution (600 μL, 120 mM NaCl, 4.8 mM KCl, 1.2 mM KH2PO4, 2.5 mM MgSO4, 25 mM NaHCO3, 2.6 mM CaCl2, 5.4 mM glucose; pH 7.4). Test compounds were added to a final concentration of 10 nM to the cuvette into 200 μl of PRP 5 min before adding the sodium propionate solution, incubated with constant stirring using a magnetic stirrer (800 rpm, 37 °C). NHE-1 inhibitors zoniporide, rimeporide, amiloride were used as reference drugs. Assays were run in 6 independent series.

Data set [2] is described as follows: Cytotoxicity study (LDH activity in the medium) in peritoneal macrophages. The format is cell-based. The settings on record: male, C57BL/6J, mouse, primary peritoneal macrophages; murine peritoneal macrophages, LDH, unit printed in Cyrillic. The method, then:
(§1) Peritoneal macrophages (PM) were isolated from the peritoneal exudate of 30 male C57bl/6j mice. To accumulate PM, 1 ml of 3% peptone solution was injected intraperitoneally. After 3 days the mice were euthanized by cervical dislocation. Cells of peritoneal exudate were obtained by aseptically washing the abdominal cavity with 5 ml of sterile Hanks’s solution (+ 4-6 °C) without calcium and magnesium ions. The total number and viability of cells were assessed in a Goryaev counting chamber (Russia) with a 0.4% trypan blue staining (Sigma-Aldrich, USA). The cell concentration was adjusted to 1.0×10^6 cells/ml in DMEM (Gibco) supplemented with 2 mM L-glutamine (Gibco), 10% heat-inactivated fetal bovine serum (BioClot, Germany), 100 U/ml penicillin and […] streptomycin (Gibco) and plated 200 μl/well in 96-well transparent plates (SPL Life Sciences Co., Ltd., Korea). It was left for 2 h at 37°C in a humidified atmosphere with 5% CO2, after which the wells were washed to remove non-adherent cells. After 24 hours of incubation, 20 μl of the supernatant was removed and 20 μl of solutions of test compounds were added 30 min before E. coli O127:B8 LPS (100 ng/ml final concentration). Experiments were run in 3 independent replicates.
(§2) The activity of lactate dehydrogenase (LDH) in a cell culture medium served as a marker of membrane permeability and cell death. Aliquotes of supernatants were taken after 24 h of inoculation with test compounds, mixed with 250 μl of […] NADH solution in 54 mM phosphate buffered saline (pH 7.5). Then, 25 μl of a 6.48 mM pyruvate solution was added to the mixture. The optical density was followed at a wavelength of 340 nm for 20 min. Conversion of optical density into cell viability was carried out according to a standard curve (DMSO-treated cells as 100% and 0.01% Triton X-100-treated cells as 0% viable cells).

Data set [3] addresses T1, NHE-1. In words: NHE-1 inhibition assay on rabbit platelets (platelet shape change after acidification with sodium propionate, laser aggregometer). The class given is cell-based.
Data set [4] relates to primary peritoneal macrophages of C57BL/6J mice. In words: Interleukin-6 secretion (ELISA) from LPS-stimulated peritoneal macrophages. The format is cell-based. The following applies: for secretion of interleukin 6: LPS-stimulated macrophages, screening (Fig. 4). The procedure: as §1
Cell supernatant was collected and centrifuged at 1000 g for 20 min in a 2-16PK Sigma centrifuge (Germany). The concentration of IL-6 was determined by ELISA using a commercial kit (Cloud-clone ELISA kit) with a microplate reader Infinite M200 PRO (Tecan, Austria).
(In an ELISA, binding on a coated surface is turned into a signal by an enzyme label.)

In data set [5] the test system is rabbit platelets. In words: ADP-induced platelet aggregation assay in rabbit platelet-rich plasma. The format is cell-based. The settings on record: 100 μM, ADP 5 μM. The procedure: (§3) Functional activity of platelets was determined on a two-channel laser analyzer of platelet aggregation "BIOLA-220 LA" (Russia) as described previously. The experiments were carried out on 6 male rabbits weighing 3.5–4 kg. To prepare platelet-rich plasma (PRP) venous blood was taken from the ear marginal vein of a rabbit, stabilized with a 3.8% sodium citrate solution in a ratio of 9:1 and centrifuged for 10 min at 1500 rpm. PRP (300 μL) and a solution of the test compound at a concentration of 100 μM were sequentially introduced into the cell of the aggregometer. The samples were incubated in thermostated cells of the aggregometer at 37 °C for 5 min. To induce aggregation adenosine-5-diphosphoric acid (ADP, Sigma, USA) at a final concentration of 5 μM, was added to the cuvette. Acetylsalicylic acid (Shandong Xinhua Pharmaceutical Co., Ltd., China) was used as a reference drug. Experiments were run in 5 independent replicates.

The subject of data set [6] is primary peritoneal macrophages of C57BL/6J mice. The data set is described as follows: Nitric oxide synthesis (nitrite, Griess reagent) in LPS-stimulated peritoneal macrophages. The format is cell-based. The following applies: 100 μM. The method, then:
as §1
The accumulation of nitrite anion (a stable end product of NO decomposition produced by iNOS) in supernatants was determined using a standard Griess reagent. Briefly, 50 μl of supernatants collected 22 hours after incubation of PM with test and control compounds were mixed with 50 μl of 1% sulfonamide in 2.5% H3PO4 and 50 μl of 0.1% N-(1-naphthyl) ethylenediamine in 2,5% H3PO4. After incubation at 23 °C for 10 min in an orbital shaker, the optical density was determined at a wavelength of 550 nm with a microplate reader Infinite M200 PRO (Tecan, Austria).
On the technique in general: Griess reagent forms a coloured azo dye with nitrite.

Data set [7] has the same test system. The data set is described as follows: Cytotoxicity study (LDH activity in the medium) in peritoneal macrophages. The following applies: 100 μM, peritoneal macrophages. The class given is cell-based. The procedure: as §1, §2
Data set [8] deals with intraocular pressure. In words: Intraocular pressure studies in outbred rats (TonoVet). The format is in vivo. The procedure: The experiments were carried out on 75 adult outbred rats of both sexes, which were kept in standard cages at a temperature of 25 °C and a standard light regime. Animals were randomly assigned to the control and experimental groups (n = 5). Before the start of the experiment, the rats had free access to food and water. Intraocular pressure (IOP) was measured with a TonoVet device (Finland)[44] which measures IOP with a short touch of a small disposable tip in the center of the cornea, no corneal anesthesia is required. The study was carried out according to the published method. One drop (50 μl) of a test 0.4% solution of the compound was instilled into the right eye, and deionized water was added to the left eye. IOP was measured in both eyes. The left eye, in turn, serves to assess the possible systemic exposure of the test compounds. […] IOP-lowering activity was assessed as the maximum decrease in IOP from the initial values. At 9:00 AM, baseline IOP was measured in animals of all groups. Experiments were run in 5 independent replicates.

Data set [9] can be described thus: Solubility under the conditions of the platelet aggregation assay. The format is physicochemical. The settings on record: antiplatelet assay. The method, then: Test compounds were dissolved in 99% DMSO (stock concentration 40 mM) and stored at –25 °C. If sediment or opalescence was detected, 5% Tween 20 (Merck) was added. Serial dilutions were prepared ex tempore in a media suitable for the particular study. Final concentration in samples: DMSO <0.25%, Tween 20 <0.025% (were added to control samples in equal concentrations).
as §3

Structures are written as SMILES. “Also recorded” adds a separate entry of the source.

T1 sequence (P23791 whole entry): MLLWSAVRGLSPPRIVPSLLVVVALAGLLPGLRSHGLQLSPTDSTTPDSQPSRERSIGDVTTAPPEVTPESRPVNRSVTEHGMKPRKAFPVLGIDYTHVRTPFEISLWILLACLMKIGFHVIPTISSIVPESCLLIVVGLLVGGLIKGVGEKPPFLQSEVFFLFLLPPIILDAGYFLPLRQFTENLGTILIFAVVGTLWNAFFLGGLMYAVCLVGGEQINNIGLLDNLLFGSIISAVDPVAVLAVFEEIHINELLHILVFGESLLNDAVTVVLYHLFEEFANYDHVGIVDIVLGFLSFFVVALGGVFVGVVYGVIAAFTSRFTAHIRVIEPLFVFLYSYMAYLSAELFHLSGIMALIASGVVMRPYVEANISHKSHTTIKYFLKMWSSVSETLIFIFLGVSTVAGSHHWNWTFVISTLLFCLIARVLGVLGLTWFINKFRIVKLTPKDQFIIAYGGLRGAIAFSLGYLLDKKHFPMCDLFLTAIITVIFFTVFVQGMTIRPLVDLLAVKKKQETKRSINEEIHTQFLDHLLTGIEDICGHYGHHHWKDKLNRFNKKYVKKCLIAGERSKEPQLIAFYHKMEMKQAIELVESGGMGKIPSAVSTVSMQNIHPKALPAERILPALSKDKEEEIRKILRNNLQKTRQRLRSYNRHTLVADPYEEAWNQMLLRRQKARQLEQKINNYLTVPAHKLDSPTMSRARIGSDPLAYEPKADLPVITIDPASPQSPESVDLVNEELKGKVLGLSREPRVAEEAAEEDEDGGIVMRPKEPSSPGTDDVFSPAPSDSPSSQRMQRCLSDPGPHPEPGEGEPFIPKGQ

For orientation: melting point means the temperature, or range, at which the solid turns liquid. Usually inhibition stands for the drop in the measured response relative to a control, in per cent. As to `C=CCn1c(=O)n(Cc2nnc(N)[nH]2)c(=O)c2ccccc21` [Compound 3g, 3-[(5-Amino-4H-1,2,4-triazol-3-yl)methyl]-1-(prop-2-en-1-yl)quinazoline-2,4(1H,3H)-dione], the melting point was 275 to 277 °C. For the same compound, the inhibition at 0.01 µM in data set [1] worked out at 10.4%.

By CC50 is commonly meant the concentration that lowers cell viability or growth by half. Read a low CC50 as harm at low concentration. In general, IC50 refers to the concentration that gives 50% inhibition. Compound `N=C(N)NC(=O)c1nc(Cl)c(N)nc1N` [Amiloride, amiloride, reference compound] returned a half-maximal cytotoxic concentration (CC50) at 24 h in data set [2] above 100000 nM. The IC50 in data set [3] amounted to 1230 nM; in [4] (Mus musculus, Peritoneal macrophage, LPS-stimulated murine macrophages, unit printed in Cyrillic, read-out: IC50 of IL-6 secretion) it was 9520 nM. Moreover, in data set [1], the inhibition at 0.01 µM was found to be 16.4%.

Regarding `CC(c1nnc(N)[nH]1)n1c(=O)c2ccccc2n(C)c1=O` (centres unmarked) (hydrate or solvate) [Compound 3f, 3-[1-(5-Amino-4H-1,2,4-triazol-3-yl)ethyl]-1-methylquinazoline-2,4(1H,3H)-dione], the melting point was 91 to 93 °C.

Take `N=C(N)NC(=O)c1cnn(-c2cccc3ncccc23)c1C1CC1` [Zoniporide, zoniporide, reference compound]: the IC50 in [3] was found to be 7.3 nM. Also, the inhibition at 0.01 µM in data set [1] worked out at 48%.

Compound `CC(C(=O)NC(=N)N)n1c(=O)c2ccccc2n(C)c1=O` (centres unmarked) [Compound 3b, N-Carbamimidoyl-2-(1-methyl-2,4-dioxo-1,4-dihydroquinazolin-3(2H)-yl)propanamide] displayed a melting point of 216 to 219 °C. Also, in [4], the “secretion of interleukin 6” value is recorded as “suppressed”. Further, the inhibition at 0.01 µM in data set [1] was determined as 1.49%.

Regarding `C=CCn1c(=O)n(C(C)c2nnc(N)[nH]2)c(=O)c2ccccc21` (centres unmarked) [Compound 3h, 3-[1-(5-Amino-4H-1,2,4-triazol-3-yl)ethyl]-1-(prop-2-en-1-yl)quinazoline-2,4(1H,3H)-dione], in [1], the inhibition at 0.01 µM stood at 33.2% and the “NHE-1 inhibitory activity (in words)” value is reported as “comparable to the reference drug rimeporide”. For the same compound, in [5], the “antiplatelet activity versus acetylsalicylic acid” value is on record as “exceeded the activity of the reference drug, acetylsalicylic acid”.

In the case of `CC(c1nnc(N)[nH]1)n1c(=O)c2ccccc2n(C)c1=O` (centres unmarked) [Compound 3f, 3-[1-(5-Amino-4H-1,2,4-triazol-3-yl)ethyl]-1-methylquinazoline-2,4(1H,3H)-dione], the inhibition at 0.01 µM in data set [1] turned out to be 29.8%. In data set [5], the “antiplatelet activity versus acetylsalicylic acid” value is recorded as “exceeded the activity of the reference drug, acetylsalicylic acid”.

`N=C(N)NC(=O)Cn1c(=O)c2ccccc2n(Cc2ccccc2)c1=O` [Compound 3c, 2-(1-Benzyl-2,4-dioxo-1,4-dihydroquinazolin-3(2H)-yl)-N-carbamimidoylacetamide]: the melting point lay within 180 to 183 °C. The “secretion of interleukin 6” value in data set [4] is on record as “suppressed”. For the same compound, in data set [1], the inhibition at 0.01 µM stood at 7.3%.

Regarding `Cn1c(=O)n(CC(=O)NC(=N)N)c(=O)c2ccccc21` [Compound 3a, N-Carbamimidoyl-2-(1-methyl-2,4-dioxo-1,4-dihydroquinazolin-3(2H)-yl)acetamide], the melting point was 266 to 269 °C. In [3], this compound yielded an IC50 of 293 nM. For the same compound, in data set [1], the inhibition at 0.01 µM came out at 33.7% and the “NHE-1 inhibitory activity (in words)” value is recorded as “comparable to the reference drug rimeporide”. Besides, the “antiplatelet activity versus acetylsalicylic acid” value in data set [5] is on record as “exceeded the activity of the reference drug, acetylsalicylic acid”.

As to `C=CCn1c(=O)n(C(C)c2nnc(N)[nH]2)c(=O)c2ccccc21` (centres unmarked) (hydrate or solvate) [Compound 3h, 3-[1-(5-Amino-4H-1,2,4-triazol-3-yl)ethyl]-1-(prop-2-en-1-yl)quinazoline-2,4(1H,3H)-dione], the melting point fell in the range of 116 to 118 °C.

With `Cn1c(=O)n(CC(=O)NC(=N)N)c(=O)c2cc(Br)ccc21` [Compound 3d, 2-(6-Bromo-1-methyl-2,4-dioxo-1,4-dihydroquinazolin-3(2H)-yl)-N-carbamimidoylacetamide], the “inhibition of the synthesis of nitric oxide” value in data set [6] was “statistically significantly inhibit”. Further, the “effect on cell viability” value in data set [7] is “absence of a statistically significant effect on cell viability”. The compound also showed an IC50 in data set [3] of 961 nM. Further, the IOP-lowering effect size result in data set [8] (compared with zoniporide and timolol) was “comparable to zoniporide and superior to timolol”. For the same compound, the IOP-lowering activity result in data set [8] (one drop (50 μl) of 0.4% solution instilled) was “statistically significant activity; also recorded: markedly reduce intraocular pressure”. Also, in data set [1], the inhibition at 0.01 µM turned out to be 33.2% and the “NHE-1 inhibitory activity (in words)” value is “comparable to the reference drug rimeporide”.

Turning to `[H]/N=C(\N)NC(=O)c1cc(S(C)(=O)=O)c(S(C)(=O)=O)cc1C` [Rimeporide, rimeporide, reference compound], the inhibition at 0.01 µM in data set [1] turned out to be 34.2%.

`Nc1nnc(Cn2cnc3ccccc3c2=O)[nH]1` [Compound 6a, 3-[(5-Amino-4H-1,2,4-triazol-3-yl)methyl]quinazolin-4(3H)-one] registered an IC50 in data set [3] of 6.7 nM. Moreover, the “solubility under assay conditions” value in data set [9] is “insoluble under assay conditions”. In [1], the inhibition at 0.01 µM stood at 54.1%; the “NHE-1 inhibitory activity (in words)” value was “more potent and comparable to zoniporide”.
